Measurements taken from patent US20110245105A1, “Methods and Kits for Direct Detection and Susceptibility Profiling of Beta-Lactam Resistant Bacteria” (YISSUM RESEARCH DEVELOPMENT COMPANY OF THE HEBREW …, priority 2008, published 2011).

Legend:
Prot. mirabilis [1] = experiment: conventional lab procedures [CLP], resistance of bacterial isolates; type: cell-based; conditions: 1 sample (r18)
Description: (§1) The same specimens were examined using conventional lab procedures [CLP] that determined the identity of the bacterial isolates and their resistance to the above beta-lactams.

Citr. koseri = experiment: ART strip test on urine sample pellets; type: cell-based; conditions: 2 samples (r25)
Protocol: (§2) Filter paper (Whatman no. 3) strips impregnated with 50 mM potassium iodide and 10 mM iodine in 0.75% aqueous starch solution were divided into 6 test areas. Appropriate antibiotic substrates were prepared at a final concentration of 20 mg/mL. Each test area was impregnated with 30 μL of the appropriate solution. The strips were then dried in a lyophilizer and stored with a desiccant at 4° C.
(§3) One mL urine samples were spun 2 minutes at 3000 RPM in room temperature. Supernatants were removed and aliquots of the resulting pellets were streaked on standard slides.
(§4) The product of the enzymatic degradation of a beta-lactam antibiotic removes the iodine from the ART strip and causes local decolorization in that strip. Typically, a detection kit consists of two slides, as illustrated in FIG. 2. The bottom slide is streaked with the sample to be tested. The top slide (lid) carries the ART strip which is activated when each test area on the strip receives 25 μL of the activator solution consisting of 40 mg gelatin in 100 mL phosphate buffer pH 6.5. The test starts when the top slide carrying the freshly activated ART strip contacts the bottom slide carrying the sample. It may be carried out at ambient temperatures but will be accelerated by warming-up to 41° C. […] Result is confirmed if no decolorization took place in the absence of the bacteria (the background of that test area) or in the absence of the antibiotic (as in Test Area 2 in FIG. 1).
(§5) One mL urine sample pellets were collected as described in Example 1 and each streaked on a slide. The strip of the invention (termed ART for Antibiotics Resistance Test) was used to test for beta-lactamase and its ability to degrade Ceftazidime [Caz], Ceftriaxone [Cro], Cefuroxime [Cxm] and Ampicillin [Amp]. The strip, containing iodine and starch and divided to areas containing each of the abovementioned antibiotics, and attached to a plain slide, was activated as shown above, and placed on the streaked slide. After 5-15 minutes at 33° C.-38° C. the slide was scanned and recorded.

K. pneumoniae [2] = experiment: ART strip test on urine sample pellets; type: cell-based
Protocol: as §2, §3, §4, §5

Str. agalactiae = experiment: ART strip test on urine sample pellets; type: cell-based; conditions: 3 samples (r34)
Protocol: as §2, §3, §4, §5

K. oxytoca [3] = experiment: ART strip test on urine sample pellets; type: cell-based
Protocol: as §2, §3, §4, §5

Morg. morganii = experiment: ART strip test on urine sample pellets; type: cell-based
Protocol: as §2, §3, §4, §5

Prot. mirabilis [4] = experiment: ART strip test on urine sample pellets; type: cell-based
Protocol: as §2, §3, §4, §5

Staphylococcus sp. = experiment: ART strip test on urine sample pellets; type: cell-based
Protocol: as §2, §3, §4, §5

E. faecalis = experiment: ART strip test on urine sample pellets; type: cell-based; conditions: 4 samples (r27)
Protocol: as §2, §3, §4, §5

Acinetobacter sp. = experiment: ART strip test on urine sample pellets; type: cell-based; conditions: 1 sample (r29)
Protocol: as §2, §3, §4, §5

Proteus mirabilis = experiment: modular antibiotic resistance detection kit on urine sample pellets; type: cell-based
Protocol: (§6) A modular antibiotic resistance detection kit offers more flexibility in testing different resistance profiles. In the modular detection kit exemplified here, the ART strip is replaced by filter paper segments glued to a slide, each segment impregnated with a single antibiotic.
(§7) Specifically, pathogen samples were tested using filter papers impregnated with the following beta-lactam antibiotics: ampicillin [Amp], augmentin (a combination of amoxicillin and clavulanic acid) [AMC], clavulanic acid (Reduced Resistance test) [RR], ceftazidime [Caz] and either imipenem or meropenem [CPM]. The impregnation details of the fragments were as in the previous Examples.
(§8) Filter paper (Whatman no. 3] strips impregnated with Assay Reagent solution were used as “indicator strips”. An indicator strip was attached to the plain top slide as shown in FIG. 2. Aliquots of the pellets of the urine samples tested were placed on each of the segments. The test was started by placing the activated indicator-strip-slide, on the modular antibiotic slide. The scan results obtained after 5-10 min at 38° C. are illustrated schematically in FIG. 2 where all segments, except for the negative (no antibiotic) control, show decolorization indicating resistance to each antibiotic in that array.
(§9) Samples resistant to ceftazidime but affected by clavulanic acid were assumed to contain extended spectrum beta lactamases (ESBLs). The ‘Confirmed’ detections column summarizes the number of CLP-validated results out of the total findings recorded.

K. pneumoniae [5] = experiment: as above; type: cell-based
Protocol: as §6, §7, §8, §9

E. coli [6] = experiment: as above; type: cell-based
Protocol: as §6, §7, §8, §9

Citrobacter freundii = experiment: as above; type: cell-based; for resistance found with modular kit: key: R = resistant; S = sensitive
Protocol: as §6, §7, §8, §9

E. coli [7] = experiment: ART strip (Antibiotics Resistance Test), iodometric detection of beta-lactam hydrolysis by un-cultured urine sample pellets; type: cell-based
Protocol: as §2, §3, §4, §5

K. pneumoniae [8] = experiment: conventional lab procedures [CLP], resistance of bacterial isolates; type: cell-based; conditions: 1 sample (r12)
Description: as §1

K. oxytoca [9] = experiment: as above; type: cell-based; conditions: 1 sample (r15)
Description: as §1

carbapenemase = experiment: detection of carbapenemase activity in clinical urine samples; type: biochemical; conditions: urine pellet streak; 12 min at room temperature; 5.0-30 mg/mL substrate
Protocol: Activated ART strip impregnated with 30 μL of an aqueous solution of 30, […], 20, 15, 10 and 5.0 mg/mL imipenem (Ipm) or ertapenem (Etp) in positions 1, 2, 3, 4 and 5 on the strip, respectively, was placed in contact with a slide streaked with a urine pellet sample (Ipm+Sam. or Etp+Sam.), or an unstreaked slide (Ipm Cont. or Etp Cont.), […] reaction to appear. Abbreviations: Cont. (control), Etp. (ertapenem), Ipm. (imipenem), sam. (sample).
The product of the enzymatic degradation of a beta-lactam antibiotic removes the iodine from the ART strip and causes local decolorization in that strip. Typically, a detection kit consists of two slides, as illustrated in FIG. 2. The bottom slide is streaked with the sample to be tested. The top slide (lid) carries the ART strip which is activated when each test area on the strip receives 25 μL of the activator solution consisting of 40 mg gelatin in 100 mL phosphate buffer pH 6.5. The test starts when the top slide carrying the freshly activated ART strip contacts the bottom slide carrying the sample. […]
Urine samples were concentrated by a two minute centrifugation step at 3000 RPM and the resulting pellet was streaked on standard slides. […] As shown by the figure, the carbapenemase activity is easily detected using this method, even in samples containing low concentrations of antibiotic substrates.

[10] = system: carbapenem-resistant Enterobacteriaceae; experiment: modular kit for detection of CRE in urine sample; type: cell-based; conditions: CRE-containing urine sample; as part of augmentin
Protocol: The kit constructed as a twin-slide [as illustrated by FIG. 1] carries an “OCTET” strip impregnated [as in Example 1] with an array of eight beta-lactam antibiotics and 1 non-beta-lactam control [S].
To illustrate the life-saving potential of the proposed technology which eliminates delays in diagnosis of carbapenem-resistant members of the Enterobacteriaceae family (CRE), a CRE sample was analyzed using the invention's modular kit, containing ampicillin, ceftazidime, augmentin, cefotaxime, imipenem, cefuroxime, meropenem and ceftriaxone as beta-lactamase substrates and a non-beta-lactam antibiotic, served as a negative control.
Filter paper segments were glued to a slide, each segment impregnated with a single antibiotic of the abovementioned antibiotics and streaked with carbapenem-resistant Enterobacteriaceae-containing urine sample pellets, prepared as described in Examples 1 to 3. The slide was contacted with indicator strips attached to a slide.

[11] = 28 samples (r6), 5-15 minutes at 33° C.-38° C.

Compound	resistance profile predicted by ART (Citr. koseri)	resistance profile predicted by ART (K. pneumoniae [2]; 1 sample (r12))	resistance profile predicted by ART (K. pneumoniae [2]; 8 samples (r11))	resistance profile predicted by ART (K. pneumoniae [2]; 11 samples (r10), MDR)	resistance profile predicted by ART (Str. agalactiae)	resistance profile predicted by ART (K. oxytoca [3]; 1 sample (r15))	resistance profile predicted by ART (K. oxytoca [3]; 3 samples (r14))	resistance profile predicted by ART (Morg. morganii; 1 sample (r22))	resistance profile predicted by ART (Morg. morganii; 1 sample (r23))	resistance profile predicted by ART (Prot. mirabilis [4]; 1 sample (r18))	resistance profile predicted by ART (Prot. mirabilis [4]; 1 sample (r19))	resistance profile predicted by ART (Prot. mirabilis [4]; 1 sample (r20))	resistance profile predicted by ART (Prot. mirabilis [4]; 6 samples (r17))	resistance profile predicted by ART (Staphylococcus sp.; 1 sample (r31))	resistance profile predicted by ART (Staphylococcus sp.; 1 sample (r32))	resistance profile predicted by ART (E. faecalis)	resistance profile predicted by ART (Acinetobacter sp.)	resistance profile predicted by ART (E. coli [7]; 3 samples (r8), MDR)	resistance profile predicted by ART (E. coli [7]; 12 samples (r7))	resistance profile predicted by ART (E. coli [7]; [11])	other results
CC1(C)S[C@@H]2[C@H](NC(=O)[C@H](N)c3ccccc3)C(=O)N2[C@H]1C(=O)O [Amp, Ampicillin]	R	R	R	R	S	R	R	R	R	R	R	R	R	R	S	S	S	R	S	R	CLP result differing from ART (in brackets) (Prot. mirabilis [1]): S; resistance found with modular kit (Proteus mirabilis; Proteus mirabilis (3 samples), profile r25, ESBL Pos): R; resistance found with modular kit (Proteus mirabilis; Proteus mirabilis, profile r26, ESBL Pos): R; resistance found with modular kit (Proteus mirabilis; Proteus mirabilis, profile r27, ESBL Neg): R; resistance found with modular kit (K. pneumoniae [5]; K. pneumoniae (5 samples), profile r17, ESBL Pos): R; resistance found with modular kit (K. pneumoniae [5]; K. pneumoniae, profile r18, ESBL Pos): R; resistance found with modular kit (K. pneumoniae [5]; K. pneumoniae, profile r19): R; resistance found with modular kit (K. pneumoniae [5]; K. pneumoniae, profile r20, ESBL Pos): R; resistance found with modular kit (K. pneumoniae [5]; K. pneumoniae, profile r21, ESBL Neg): R; resistance found with modular kit (E. coli [6]; E. coli (16 samples), profile r6, ESBL Neg, 5-10 min at 38° C.): S; resistance found with modular kit (E. coli [6]; E. coli, profile r7): S; resistance found with modular kit (E. coli [6]; E. coli, profile r8): R; resistance found with modular kit (E. coli [6]; E. coli, profile r9, ESBL Neg): R; resistance found with modular kit (E. coli [6]; E. coli, profile r10, ESBL Neg): R; resistance found with modular kit (E. coli [6]; E. coli, profile r11, ESBL Neg): R; resistance found with modular kit (E. coli [6]; E. coli, profile r12, ESBL Neg): R; resistance found with modular kit (E. coli [6]; E. coli, profile r13): R; resistance found with modular kit (E. coli [6]; E. coli, profile r14, ESBL Pos): R; resistance found with modular kit (E. coli [6]; E. coli, profile r15, ESBL Pos): R; resistance found with modular kit (Citrobacter freundii; profile r23, ESBL Pos): R
CO/N=C(\C(=O)N[C@@H]1C(=O)N2C(C(=O)O)=C(CSc3nc(=O)c(=O)[nH]n3C)CS[C@H]12)c1csc(N)n1 [Cro, Ceftriaxone]	S	S	S	R	S[nd]	S	S	S	R	S	R	S	S	S	S	S[nd]	S	R	S	S	CLP result differing from ART (in brackets) (K. pneumoniae [8]): R; CLP result differing from ART (in brackets) (K. oxytoca [9]): R
CO/N=C(\C(=O)N[C@@H]1C(=O)N2C(C(=O)O)=C(COC(N)=O)CS[C@H]12)c1ccco1 [Cxm, Cefuroxime]	S	R	S	R	S[nd]	R	S	S	R	R	R	R	S	S	S	S[nd]	S	R	S	S	
C[C@@H](O)[C@H]1C(=O)N2C(C(=O)O)=C(S[C@@H]3CN[C@H](C(=O)Nc4cccc(C(=O)O)c4)C3)[C@H](C)[C@H]12 [Ert, ertapenem]																					hydrolysis by carbapenemase in the sample (decolorization of strip) (carbapenemase): hydrolyzing
O=C(O)[C@H]1/C(=C/CO)O[C@@H]2CC(=O)N21 [RR, clavulanic acid]																					protection from hydrolysis [10]: no protection from hydrolysis; Effect of clavulanic acid (Reduced Resistance) (K. pneumoniae [5]; K. pneumoniae, profile r20): N; Effect of clavulanic acid (Reduced Resistance) (E. coli [6]; E. coli, profile r12): N; Effect of clavulanic acid (Reduced Resistance) (Citrobacter freundii; profile r23): N
